Test results: patent US5955440A, “Macrolide LHRH antagonists” (Abbott Laboratories, priority 1998, dated 1999)
Where a name gives a salt, the structure may show the parent alone.

molecular target: T1, LHRH rat pituitary receptor (Rattus norvegicus, UniProt P30969); assay: LHRH rat pituitary receptor binding (pKI); conditions: negative logarithm of the equilibrium dissociation constants, Table 1, read-out: receptor binding affinity (pKI) (converted)
T1 construct: from tissue; host or cells: rat pituitary
T1 sequence (P30969 1-327): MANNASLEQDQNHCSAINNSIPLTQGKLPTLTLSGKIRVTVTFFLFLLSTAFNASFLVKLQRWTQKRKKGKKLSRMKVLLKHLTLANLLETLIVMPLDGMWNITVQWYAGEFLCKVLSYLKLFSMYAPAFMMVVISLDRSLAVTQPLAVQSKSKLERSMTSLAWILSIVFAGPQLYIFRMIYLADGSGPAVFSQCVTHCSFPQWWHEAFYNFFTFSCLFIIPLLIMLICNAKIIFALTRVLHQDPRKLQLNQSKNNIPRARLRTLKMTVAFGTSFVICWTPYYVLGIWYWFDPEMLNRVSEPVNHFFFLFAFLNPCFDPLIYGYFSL
Procedure: Representative compounds of the present invention were evaluated in in vitro tests for LHRH rat pituitary receptor binding (pKI) and for LH inhibition from rat pituitary cells for antagonist potency (pA2). The tests employed the methods detailed in F. Haviv, et al. J. Med. Chem., 32: 2340-2344 (1989). The receptor binding affinity (pKI) is the negative logarithm of the equilibrium dissociation constants.

Ki [nM] | Compound
8.51 | CCCN(C)[C@H]1C[C@@H](C)O[C@@H](O[C@@H]2[C@@H](C)[C@H](O[C@H]3C[C@@](C)(OC)[C@@H](O)[C@H](C)O3)[C@@H](C)C(=O)O[C@H](CC)[C@@]3(C)OC(=O)N(CCc4ccc(C)c(C)c4)[C@@H]3[C@@H](C)C(=O)[C@H](C)C[C@@]2(C)OC)[C@@H]1O [Example 41, 3'-N-Desmethyl-3'-N-propyl-11-deoxy-11-[carboxy-(3,4-dimethylphenethylamino)]-6-O-methyl-erythromycin A 11,12-(cyclic carbamate)]
4.68 | CC[C@H]1OC(=O)[C@H](C)[C@@H](O[C@H]2C[C@@](C)(OC)[C@@H](O)[C@H](C)O2)[C@H](C)[C@@H](O[C@@H]2O[C@H](C)C[C@H](N(C)CCCSC)[C@H]2O)[C@](C)(OC)C[C@@H](C)C(=O)[C@H](C)[C@H]2N(CCc3ccc(Cl)c(Cl)c3)C(=O)O[C@]12C [Example 7, 3'-N-Desmethyl-3'-N-(3-methylthiopropyl)-11-deoxy-11-[carboxy-(3,4-dichlorophenethylamino)]-6-O-methyl-erythromycin A 11,12-(cyclic carbamate)]
8.13 | CC[C@H]1OC(=O)[C@H](C)[C@@H](O[C@H]2C[C@@](C)(OC)[C@@H](O)[C@H](C)O2)[C@H](C)[C@@H](O[C@@H]2O[C@H](C)C[C@H](N(C)CCC(C)C)[C@H]2O)[C@](C)(OC)C[C@@H](C)C(=O)[C@H](C)[C@H]2N(CCc3ccc(Cl)c(Cl)c3)C(=O)O[C@]12C [Example 6]
2.24 | CC[C@H]1OC(=O)[C@H](C)[C@@H](O[C@H]2C[C@@](C)(OC)[C@@H](O)[C@H](C)O2)[C@H](C)[C@@H](O[C@@H]2O[C@H](C)C[C@H](N(C)CCCc3cccc(C)n3)[C@H]2O)[C@](C)(OC)C[C@@H](C)C(=O)[C@H](C)[C@H]2N(CCc3ccc(F)c(Cl)c3)C(=O)O[C@]12C [Example 87, 3'-N-Desmethyl-3'-N-[3-(6-methyl-2-pyridyl)propyl]-11-deoxy-11-[carboxy-(3-chloro-4-fluorophenethylamino)]-6-O-methyl-erythromycin A 11,12-(cyclic carbamate)]
2.69 | CCCN(C)[C@H]1C[C@@H](C)O[C@@H](O[C@@H]2[C@@H](C)[C@H](O[C@H]3C[C@@](C)(OC)[C@@H](O)[C@H](C)O3)[C@@H](C)C(=O)O[C@H](CC)[C@@]3(C)OC(=O)N(CCNc4ccc(Cl)cc4)[C@@H]3[C@@H](C)C(=O)[C@H](C)C[C@@]2(C)OC)[C@@H]1O [Example 60, 3'-N-Desmethyl-3'-N-propyl-11-deoxy-11-[carboxy-(4-chloroanilinoethylamino)]-6-O-methyl-erythromycin A 11,12-(cyclic carbamate)]
2.69 | CC[C@H]1OC(=O)[C@H](C)[C@@H](O[C@H]2C[C@@](C)(OC)[C@@H](O)[C@H](C)O2)[C@H](C)[C@@H](O[C@@H]2O[C@H](C)C[C@H](N(C)C3CCCC3)[C@H]2O)[C@](C)(OC)C[C@@H](C)C(=O)[C@H](C)[C@H]2N(CCNc3ccc(Cl)cc3)C(=O)O[C@]12C [Example 61]
3.55 | CC[C@H]1OC(=O)[C@H](C)[C@@H](O[C@H]2C[C@@](C)(OC)[C@@H](O)[C@H](C)O2)[C@H](C)[C@@H](O[C@@H]2O[C@H](C)C[C@H](N(C)Cc3ccco3)[C@H]2O)[C@](C)(OC)C[C@@H](C)C(=O)[C@H](C)[C@H]2N(CCc3ccc(F)c(Cl)c3)C(=O)O[C@]12C [Example 45, 3'-N-Desmethyl-3'-N-(2-furyl)methyl-11-deoxy-11-[carboxy-(3-chloro-4-fluorophenethylamino)]-6-O-methyl-erythromycin A 11,12-(cyclic carbamate)]

The next lines start with the compound.

Compound | Ki [nM]
CC[C@H]1OC(=O)[C@H](C)[C@@H](O[C@H]2C[C@@](C)(OC)[C@@H](O)[C@H](C)O2)[C@H](C)[C@@H](O[C@@H]2O[C@H](C)C[C@H](N(C)C3CC3)[C@H]2O)[C@](C)(OC)C[C@@H](C)C(=O)[C@H](C)[C@H]2N(CCc3ccc(Cl)c(Cl)c3)C(=O)O[C@]12C [Example 2, 3'-N-Desmethyl-3'-N-cyclopropyl-11-deoxy-11-[carboxy-(3,4-dichlorophenethylamino)]-6-O-methyl-erythromycin A 11,12-(cyclic carbamate)] | 0.575
CC[C@H]1OC(=O)[C@H](C)[C@@H](O[C@H]2C[C@@](C)(OC)[C@@H](O)[C@H](C)O2)[C@H](C)[C@@H](O[C@@H]2O[C@H](C)C[C@H](N(C)C3CCC3)[C@H]2O)[C@](C)(OC)C[C@@H](C)C(=O)[C@H](C)[C@H]2N(CCc3ccc(Cl)c(Cl)c3)C(=O)O[C@]12C [Example 4, 3'-N-Desmethyl-3'-N-cyclobutyl-11-deoxy-11-[carboxy-(3,4-dichlorophenethylamino)]-6-O-methyl-erythromycin A 11,12-(cyclic carbamate) hydrochloride] | 3.24
CC[C@H]1OC(=O)[C@H](C)[C@@H](O[C@H]2C[C@@](C)(OC)[C@@H](O)[C@H](C)O2)[C@H](C)[C@@H](O[C@@H]2O[C@H](C)C[C@H](N(C)Cc3ccco3)[C@H]2O)[C@](C)(OC)C[C@@H](C)C(=O)[C@H](C)[C@H]2N(CCc3ccc(Cl)c(Cl)c3)C(=O)O[C@]12C [Example 75, 3'-N-Desmethyl-3'-N-(2-furylmethyl)-11-deoxy-11-[carboxy-(3,4-dichlorophenethylamino)]-6-O-methyl-erythromycin A 11,12-(cyclic carbamate)] | 1.26
CC[C@H]1OC(=O)[C@H](C)[C@@H](O[C@H]2C[C@@](C)(OC)[C@@H](O)[C@H](C)O2)[C@H](C)[C@@H](O[C@@H]2O[C@H](C)C[C@H](N(C)C3CCCC3)[C@H]2O)[C@](C)(OC)C[C@@H](C)C(=O)[C@H](C)[C@H]2N(CC3(c4ccc(Cl)c(Cl)c4)CC3)C(=O)O[C@]12C [Example 12, 3'-N-Desmethyl-3'-N-cyclopentyl-11-deoxy-11-[carboxy-(α,α-cyclopropyl-3,4-dichlorophenethylamino)]-6-O-methyl-erythromycin A 11,12-(cycliccarbamate)] | 2.09
CC[C@H]1OC(=O)[C@H](C)[C@@H](O[C@H]2C[C@@](C)(OC)[C@@H](O)[C@H](C)O2)[C@H](C)[C@@H](O[C@@H]2O[C@H](C)C[C@H](N(C)Cc3ccc(CO)o3)[C@H]2O)[C@](C)(OC)C[C@@H](C)C(=O)[C@H](C)[C@H]2N(CCc3ccc(F)c(Cl)c3)C(=O)O[C@]12C [Example 46, 3'-N-Desmethyl-3'-N-[2-(5-hydroxymethyl)furyl]methyl-11-deoxy-11-[carboxy-(3-chloro-4-fluorophenethylamino)]-6-O-methyl-erythromycin A 11,12-(cyclic carbamate)] | 1.15
CC[C@H]1OC(=O)[C@H](C)[C@@H](O[C@H]2C[C@@](C)(OC)[C@@H](O)[C@H](C)O2)[C@H](C)[C@@H](O[C@@H]2O[C@H](C)C[C@H](N(C)C(C)CCc3ccc(O)cc3)[C@H]2O)[C@](C)(OC)C[C@@H](C)C(=O)[C@H](C)[C@H]2N(CCc3ccc(Cl)c(Cl)c3)C(=O)O[C@]12C (some centres unmarked) [Example 85, 3'-N-Desmethyl-3'-N-(1-methyl)[3-(4-hydroxy)phenyl]propyl-11-deoxy-11-[carboxy-(3,4-dichlorophenethylamino)]-6-O-methyl-erythromycin A 11,12-(cyclic carbamate)] | 5.89
CC[C@H]1OC(=O)[C@H](C)[C@@H](O[C@H]2C[C@@](C)(OC)[C@@H](O)[C@H](C)O2)[C@H](C)[C@@H](O[C@@H]2O[C@H](C)C[C@H](N(C)Cc3cccnc3)[C@H]2O)[C@](C)(OC)C[C@@H](C)C(=O)[C@H](C)[C@H]2N(CCc3ccc(Cl)c(Cl)c3)C(=O)O[C@]12C [Example 64, 3'-N-Desmethyl-3'-N-(3-pyridyl)methyl-11-deoxy-11-[carboxy-(3,4-dichlorophenethylamino)]-6-O-methyl-erythromycin A 11,12-(cyclic carbamate)] | 6.92
CC[C@H]1OC(=O)[C@H](C)[C@@H](O[C@H]2C[C@@](C)(OC)[C@@H](O)[C@H](C)O2)[C@H](C)[C@@H](O[C@@H]2O[C@H](C)C[C@H](N(C)CCCC(F)(F)F)[C@H]2O)[C@](C)(OC)C[C@@H](C)C(=O)[C@H](C)[C@H]2N(CCc3ccc(Cl)c(Cl)c3)C(=O)O[C@]12C [Example 71, 3'-N-Desmethyl-3'-N-(4,4,4-trifluorobutyl)-11-deoxy-11-[carboxy-(3,4-dichlorophenethylamino)]-6-O-methyl-erythromycin A 11,12-(cyclic carbamate)] | 6.17
CC[C@H]1OC(=O)[C@H](C)[C@@H](O[C@H]2C[C@@](C)(OC)[C@@H](O)[C@H](C)O2)[C@H](C)[C@@H](O[C@@H]2O[C@H](C)C[C@H](N(C)C3CCCC3)[C@H]2O)[C@](C)(OC)C[C@@H](C)C(=O)[C@H](C)[C@H]2N(CCc3ccc(Cl)c(F)c3)C(=O)O[C@]12C [Example 18, 3'-N-Desmethyl-3'-N-cyclopentyl-11-deoxy-11-[carboxy-(4-chloro-3-fluorophenethylamino)]-6-O-methyl-erythromycin A 11,12-(cyclic carbamate)] | 5.89
CC[C@H]1OC(=O)[C@H](C)[C@@H](O[C@H]2C[C@@](C)(OC)[C@@H](O)[C@H](C)O2)[C@H](C)[C@@H](O[C@@H]2O[C@H](C)C[C@H](N(C)CCC(C)SC)[C@H]2O)[C@](C)(OC)C[C@@H](C)C(=O)[C@H](C)[C@H]2N(CCc3ccc(Cl)c(Cl)c3)C(=O)O[C@]12C (some centres unmarked) [Example 93, 3'-N-Desmethyl-3'-N-[(3-methylthio)butyl]-11-deoxy-11-[carboxy-(3,4-dichlorophenethylamino)]-6-O-methyl-erythromycin A 11,12-(cyclic carbamate)] | 5.01
